Test results as given in patent US20240366589A1, “NHE3-BINDING COMPOUNDS AND METHODS FOR INHIBITING PHOSPHATE TRANSPORT” (Ardelyx, Inc., priority 2013, published 2024).

Key:
[1] = tested on: absorption of sodium from the intestinal lumen; assay: Fecal form score (FFS) 16 h after oral dose in rats; format: in vivo, rat; details: oral gavage, 16 h post-dose, scale 1-5
Method in brief: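 Fecal form was scored at 16 h post-dose on a 1–5 wetness scale (normal pellet to liquid stream), with two independent observations averaged across six rats per group. Animals were 8-week-old Sprague-Dawley rats given test compound or water orally in the late afternoon and kept in metabolic cages.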

[2] = biological target: T1, Human NHE3 (Homo sapiens, UniProt P48764); assay: Cell-based NHE3 activity under prompt conditions (OK cells, BCECF pH recovery), human NHE3; details: prompt conditions
T1 construct: expressed in transfected cells; host or cells: Opossum kidney (OK) cells (ATCC), electroporation
T1 sequence (P48764 26-834): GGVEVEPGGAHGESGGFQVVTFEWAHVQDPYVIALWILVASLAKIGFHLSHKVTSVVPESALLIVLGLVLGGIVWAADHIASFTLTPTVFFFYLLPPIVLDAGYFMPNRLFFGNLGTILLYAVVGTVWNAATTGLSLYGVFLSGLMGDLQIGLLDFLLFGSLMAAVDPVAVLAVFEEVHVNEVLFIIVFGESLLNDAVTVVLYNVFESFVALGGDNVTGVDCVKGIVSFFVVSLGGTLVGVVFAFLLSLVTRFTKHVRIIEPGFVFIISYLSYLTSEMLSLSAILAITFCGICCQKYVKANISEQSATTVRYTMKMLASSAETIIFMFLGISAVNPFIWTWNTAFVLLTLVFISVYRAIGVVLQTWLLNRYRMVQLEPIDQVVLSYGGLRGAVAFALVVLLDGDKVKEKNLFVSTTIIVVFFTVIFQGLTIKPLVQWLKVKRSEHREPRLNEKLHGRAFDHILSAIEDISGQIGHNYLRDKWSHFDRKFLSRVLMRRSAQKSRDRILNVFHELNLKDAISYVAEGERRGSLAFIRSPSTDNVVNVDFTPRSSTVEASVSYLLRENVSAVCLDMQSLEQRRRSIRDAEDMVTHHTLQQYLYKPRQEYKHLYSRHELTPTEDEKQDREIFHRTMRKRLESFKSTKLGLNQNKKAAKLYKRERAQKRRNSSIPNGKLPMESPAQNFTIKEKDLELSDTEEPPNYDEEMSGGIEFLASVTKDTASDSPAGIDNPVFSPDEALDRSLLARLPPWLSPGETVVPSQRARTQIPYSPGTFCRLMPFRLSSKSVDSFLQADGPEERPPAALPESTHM
Method in brief: (§1)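 Fluorometric NHE3 antiport assay in opossum kidney cells carrying rat or human NHE3, using BCECF pH recovery after NH4Cl-prepulse acid loading. pIC50 values derive from initial rates averaged across at least two replicates.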

[3] = tested on: absorption of sodium from the intestinal lumen; assay: Inhibition of intestinal sodium absorption: urinary sodium (uNa) 16 h after single oral dose in rats; format: in vivo, rat; details: oral gavage, 16 h post-dose
Method in brief: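 Urinary sodium mass over the 16 h after one oral gavage dose, measured by cation-exchange ion chromatography, reported as percent of water-vehicle group; ANOVA plus Dunnett's post hoc test. Groups of six 8-week-old Sprague-Dawley rats, housed individually in metabolic cages post-dose, fed and watered freely.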

[4] = biological target: T2, Rat NHE3 (Rattus norvegicus, UniProt P26433); assay: Cell-based NHE3 activity under prompt conditions (OK cells, BCECF pH recovery), rat NHE3; details: prompt conditions
T2 construct: expressed in transfected cells; host or cells: Opossum kidney (OK) cells (ATCC), electroporation
T2 sequence (P26433 29-831): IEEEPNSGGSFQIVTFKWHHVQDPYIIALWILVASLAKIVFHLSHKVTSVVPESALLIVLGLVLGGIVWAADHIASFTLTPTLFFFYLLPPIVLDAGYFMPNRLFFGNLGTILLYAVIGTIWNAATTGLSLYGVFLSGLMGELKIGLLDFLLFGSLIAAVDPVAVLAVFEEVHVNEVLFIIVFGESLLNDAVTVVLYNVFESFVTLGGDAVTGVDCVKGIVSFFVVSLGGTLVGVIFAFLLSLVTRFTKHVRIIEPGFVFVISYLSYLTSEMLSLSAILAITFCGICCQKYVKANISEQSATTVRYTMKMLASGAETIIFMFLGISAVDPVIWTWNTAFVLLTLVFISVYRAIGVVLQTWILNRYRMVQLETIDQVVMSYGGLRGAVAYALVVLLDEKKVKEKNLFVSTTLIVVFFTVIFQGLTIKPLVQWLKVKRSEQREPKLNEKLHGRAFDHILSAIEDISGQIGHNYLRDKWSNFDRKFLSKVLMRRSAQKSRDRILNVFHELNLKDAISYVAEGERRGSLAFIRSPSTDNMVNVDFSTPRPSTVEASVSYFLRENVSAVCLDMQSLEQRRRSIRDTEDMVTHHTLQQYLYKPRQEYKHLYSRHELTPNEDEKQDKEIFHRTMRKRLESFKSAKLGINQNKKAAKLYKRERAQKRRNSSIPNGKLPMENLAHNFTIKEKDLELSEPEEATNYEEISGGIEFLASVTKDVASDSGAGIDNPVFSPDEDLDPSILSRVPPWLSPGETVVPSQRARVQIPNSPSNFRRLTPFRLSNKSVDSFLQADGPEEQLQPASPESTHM
Method in brief: as §1

[5] = tested on: phosphorus and calcium levels in the urine of rats; assay: Urinary excretion of phosphate and calcium in rats (16 h overnight urine); format: in vivo, rat; details: rats, oral gavage, 16 h post-dose

Row | Compound | Prompt Human NHE3 pIC50 [2] | Prompt Rat NHE3 pIC50 [4] | IC50 ([4]; read-out: Prompt Rat NHE3 pIC50 (converted)) | Fecal Form Score average ([1]; dose 3 mg/kg) | Urine Na % of control ([3]; dose 3 mg/kg) | Urine P % of control ([5]; dose 3 mg/kg) | Fecal Form Score average ([1]; dose 1 mg/kg) | Fecal Form Score average ([1]; dose 10 mg/kg) | Urine Na % of control ([3]; dose 1 mg/kg) | Urine Na % of control ([3]; dose 10 mg/kg) | Urine P % of control ([5]; dose 1 mg/kg) | Urine P % of control ([5]; dose 10 mg/kg) | Fecal Form Score average ([1]; dose 30 mg/kg) | Urine Na % of control ([3]; dose 30 mg/kg) | Urine P % of control ([5]; dose 30 mg/kg)
1 | CN1Cc2c(Cl)cc(Cl)cc2[C@H](c2cccc(S(=O)(=O)NCCOCCOCCOCCN)c2)C1 [compound 22] | 6.95 | 7.34 |  |  |  |  | 1 | 2 | 91% | 19% | 64% | 40% |  |  | 
2 | C/C(=C\c1cc(F)c(Oc2ccc(S(=O)(=O)NCCOCCOCCOCCNC(=O)CN(CCN(CC(=O)O)CC(=O)NCCOCCOCCOCCNS(=O)(=O)c3ccc(Oc4c(F)cc(/C=C(\C)C(=O)N=C(N)N)cc4F)cc3)CC(=O)O)cc2)c(F)c1)C(=O)N=C(N)N [compound 27] | 8.40 | 7.50 |  |  |  |  |  | 1 |  | 51% |  | 91% |  |  | 
3 | CN(CC(=O)NCCOCCOCCNC(=O)NCCOCCOCCN1CCN(c2cccc(-c3nc(NC(=N)N)nc4ccc(Cl)cc34)c2)CC1)CC(=O)NCCOCCOCCNC(=O)NCCOCCOCCN1CCN(c2cccc(-c3nc(NC(=N)N)nc4ccc(Cl)cc34)c2)CC1 [compound 33] | 7.90 | 7.40 |  |  |  |  |  | 1 |  | 98% |  | 117% |  |  | 
4 | N=C(N)Nc1nc(-c2ccc(S(=O)(=O)NCCOCCOCCN)cc2)c2cc(Cl)ccc2n1 [compound 8] | 6.40 | 6.90 |  |  |  |  |  | 1 |  | 73% |  | 101% | 2 | 31% | 114%
5 | CCC(=O)NC(CCC(=O)NCCOCCOCCOCCNS(=O)(=O)c1cccc([C@@H]2CN(C)Cc3c(Cl)cc(Cl)cc32)c1)(CCC(=O)NCCOCCOCCOCCNS(=O)(=O)c1cccc([C@@H]2CN(C)Cc3c(Cl)cc(Cl)cc32)c1)CCC(=O)NCCOCCOCCOCCNS(=O)(=O)c1cccc([C@@H]2CN(C)Cc3c(Cl)cc(Cl)cc32)c1 [compound 89] | 7.90 | 7.10 |  |  |  |  |  | 3 |  | 49% |  | 117% |  |  | 
6 | CN1Cc2c(Cl)cc(Cl)cc2[C@H](c2cccc(S(=O)(=O)NCCOCCOCCNC(=O)CCN(CCC(=O)NCCOCCOCCNS(=O)(=O)c3cccc([C@@H]4CN(C)Cc5c(Cl)cc(Cl)cc54)c3)CCC(=O)NCCOCCOCCNS(=O)(=O)c3cccc([C@@H]4CN(C)Cc5c(Cl)cc(Cl)cc54)c3)c2)C1 [compound 80] | 6.93 | 5.50 |  | 2 | 55% | 39% | 1 | 3 | 66% | 9% | 70% | 21% |  |  | 
7 | NC(N)=Nc1nc(-c2cccc(N3CCN(CCOCCOCCNC(=O)NCCOCCOCCNC(=O)NCCCCNC(=O)NCCOCCOCCNC(=O)NCCOCCOCCN4CCN(c5cccc(-c6nc(N=C(N)N)nc7ccc(Cl)cc67)c5)CC4)CC3)c2)c2cc(Cl)ccc2n1 [compound 28] | 8.10 | 7.60 |  |  |  |  |  | 1 |  | 83% |  | 129% |  |  | 

Second part, led by results:

Row | Prompt Human NHE3 pIC50 [2] | Prompt Rat NHE3 pIC50 [4] | IC50 ([4]; read-out: Prompt Rat NHE3 pIC50 (converted)) | Compound | Fecal Form Score average ([1]; dose 3 mg/kg) | Urine Na % of control ([3]; dose 3 mg/kg) | Urine P % of control ([5]; dose 3 mg/kg) | Fecal Form Score average ([1]; dose 1 mg/kg) | Fecal Form Score average ([1]; dose 10 mg/kg) | Urine Na % of control ([3]; dose 1 mg/kg) | Urine Na % of control ([3]; dose 10 mg/kg) | Urine P % of control ([5]; dose 1 mg/kg) | Urine P % of control ([5]; dose 10 mg/kg) | Fecal Form Score average ([1]; dose 30 mg/kg) | Urine Na % of control ([3]; dose 30 mg/kg) | Urine P % of control ([5]; dose 30 mg/kg)
8 | 7.10 | 8.10 |  | CN1Cc2c(Cl)cc(Cl)cc2[C@H](c2cccc(S(=O)(=O)NCCOCCOCCNC(=O)CCC(CCC(=O)NCCOCCOCCNS(=O)(=O)c3cccc([C@@H]4CN(C)Cc5c(Cl)cc(Cl)cc54)c3)(CCC(=O)NCCOCCOCCNS(=O)(=O)c3cccc([C@@H]4CN(C)Cc5c(Cl)cc(Cl)cc54)c3)NC(=O)N(C)C[C@H](O)[C@@H](O)[C@H](O)[C@H](O)CO)c2)C1 [compound 142] | 2 | 45% | 38% |  |  |  |  |  |  |  |  | 
9 | 7.60 | 9.20 |  | CN1Cc2c(Cl)cc(Cl)cc2[C@H](c2cccc(S(=O)(=O)NCCOCCOCCNC(=O)NCCCC(CCCNC(=O)NCCOCCOCCNS(=O)(=O)c3cccc([C@@H]4CN(C)Cc5c(Cl)cc(Cl)cc54)c3)(CCCNC(=O)NCCOCCOCCNS(=O)(=O)c3cccc([C@@H]4CN(C)Cc5c(Cl)cc(Cl)cc54)c3)NC(=O)COCC(=O)O)c2)C1 [compound 161] | 2 | 82% | 60% |  |  |  |  |  |  |  |  | 
10 | <5.00 | <5.00 |  | CN1Cc2c(Cl)cc(Cl)cc2[C@@H](c2cccc(S(=O)(=O)NCCOCCOCCNC(=O)NCCCCNC(=O)NCCOCCOCCNS(=O)(=O)c3cccc([C@H]4CN(C)Cc5c(Cl)cc(Cl)cc54)c3)c2)C1 [compound 40] |  |  |  | 1 | 1 | 80% | 90% | 149% | 128% |  |  | 
11 | 7.40 | 7.80 |  | CN1Cc2c(Cl)cc(Cl)cc2[C@H](c2cccc(S(=O)(=O)NCCOCCOCCN(C)C(=O)CCC(N)(CCC(=O)N(C)CCOCCOCCNS(=O)(=O)c3cccc([C@@H]4CN(C)Cc5c(Cl)cc(Cl)cc54)c3)CCC(=O)N(C)CCOCCOCCNS(=O)(=O)c3cccc([C@@H]4CN(C)Cc5c(Cl)cc(Cl)cc54)c3)c2)C1 [compound 175] | 1 | 102% | 48% |  |  |  |  |  |  |  |  | 
12 | 6.80 | 6.95 |  | NCCOCCOCCOc1ccc(-c2nc(N=C(N)N)nc3ccc(Cl)cc23)cc1 [compound 11] |  |  |  |  | 1 |  | 60% |  | 64% | 2 | 29% | 96%
13 | 7.50 |  | 67.6 nM | CN1Cc2c(Cl)cc(Cl)cc2[C@H](c2cccc(S(=O)(=O)NCCOCCOCCNC(=O)CCC(CCC(=O)NCCOCCOCCNS(=O)(=O)c3cccc([C@@H]4CN(C)Cc5c(Cl)cc(Cl)cc54)c3)(CCC(=O)NCCOCCOCCNS(=O)(=O)c3cccc([C@@H]4CN(C)Cc5c(Cl)cc(Cl)cc54)c3)N(C)C)c2)C1 [compound 124] | 2 | 22% | 61% | 1 |  | 69% |  | 154% |  |  |  | 
14 | 8.30 | 7.50 |  | CN1Cc2c(Cl)cc(Cl)cc2[C@H](c2cccc(S(=O)(=O)NCCOCCOCCNC(=O)CCC(=O)NCCOCCOCCNS(=O)(=O)c3ccc(O[C@H]4c5ccccc5C[C@@H]4N4CCCCC4)cc3)c2)C1 [compound 96] |  |  |  |  | 1 |  | 33% |  | 94% |  |  | 
15 | 7.90 | 7.00 |  | CN1Cc2c(Cl)cc(Cl)cc2[C@H](c2cccc(S(=O)(=O)N(C)CCOCCOCCNC(=O)NCCCN(CCCNC(=O)NCCOCCOCCN(C)S(=O)(=O)c3cccc([C@@H]4CN(C)Cc5c(Cl)cc(Cl)cc54)c3)CCCNC(=O)NCCOCCOCCN(C)S(=O)(=O)c3cccc([C@@H]4CN(C)Cc5c(Cl)cc(Cl)cc54)c3)c2)C1 [compound 106] | 2 | 76% | 39% | 1 | 4 | 98% | 20% | 124% | 64% |  |  | 
